# Tests used:
# [1] = test system: Croton oil induced oedema in the mouse ear; experiment: Test of topical antiinflammatory activity: Croton oil dermatitis in the mouse ear; format: in vivo; settings: for ID50 (dose level able to reduce by 50% the oedematous response): linear interpolation from the dose-response relationship, indomethacin value confirmed from past data; for Inhibition (%) of oedema / Oedema (mg) m ± E.S.: 6 hours
# Experimental: 3. Test of Topical Antiinflammatory Activity
# The antiinflammatory activity of Asialene and L-Asialene was evaluated in comparison to that of the NSAID indomethacin. As experimental model, the Croton oil dermatitis induced in the mouse ear was used (Tubaro et al., Agents & Actions 17: 347-349).
# The experimental inflammation was induced on the right ear (surface: about 1 cm^2) of anaesthetised mice (145 mg/kg ketamine hydrochloride i.p.) by application of 80 μg of Croton oil (Sigma-Italy) in 15 μl acetone on the right ear of mice, the left remaining untreated. The tested substances were dissolved in the Croton oil solution. Six hours after the dermatitis induction, the animals were sacrificed and a punch (6 mm diameter) was excised from both the treated and the untreated ears and weighed. The Croton oil induced oedema was quantified by measuring the difference in weight between the treated and untreated (opposite) ear samples. The anti-oedema activity was expressed as percent inhibition of the oedematous response in animals treated with the test substances in comparison to the animals treated with the irritant alone. Male albino Swiss mice CD-1 (Harlan-Italy), weighing 20-32 g, were used. For each substance and dose level, 10 animals were used.
# The effects on the vascular response were evaluated as percent oedema inhibition. […] For each substance, the dose level able to reduce by 50% the oedematous response (ID50) was calculated by linear interpolation from the dose-response relationship.
# Asialene and L-Asialene were administered at equimolar doses.
# [2] = prior art statement; cited from earlier work
# human endothelial cells [3] = experiment: Fibronectin evaluation (immunofluorescence, intercellular strands) in human endothelial cells in culture; format: cell-based; settings: 1.5 μg/ml; after 48 hours; culture medium + EtOH 0.75 g/dl
# Experimental: (§1) 1. Test of Production of PG1 and of Fibronectin from Human Endothelial Cells in Culture.
# For the Fibronectin evaluation, the primary cultures were resuspended in 0.05% Trypsin/0.02% EDTA. The cells, washed twice in Hanks solution, were counted in order to assure at least 300,000 cells/ml and seeded. After 48 hours the supernatant was removed and the slides were prepared, which after being washed 2 times with PBS, and dried, were fixed in acetic acid/ethanol for 30 minutes; a washing with PBS was then carried out and added the polyclonal rabbit anti-human fibronectin antibody (1:40, Dako). After incubation at room temperature for 30 minutes, it was washed with PBS and the fluoresceinated anti-rabbit immunoglobulin antibody was added (1:100, Dako). The slides were left in incubation for 30 minutes and then mounted on an object holder and read with a fluorescence electronic microscope.
# In the following table, the numbers relating to fibronectin intercellular strands (1:100 scale) are reported.
# platelet = experiment: Evaluation of the platelet aggregation inhibiting effect in PRP; format: cell-based, human; settings: 70 μg/ml
# Experimental: 2. Evaluation of the Platelet Aggregation Inhibiting Effect
# Blood taken from healthy volunteers not submitted to pharmacological therapy during one week, was gathered in polyethylene test-tubes containing 3.8% sodium citrate in 1:9 ratio, and centrifuged at 1000 g for 10 minutes in order to obtain plasma having a high platelet content (PRP) and at 3000 g for 15 minutes in order to obtain plasma having a low platelet content (PPP). Two […] PRP samples (300,000+/−10000 platelet/ml final concentration) were submitted to incubation at 37° C. for 60 seconds in presence of 100 μl FTT (700 μg/ml) and 10 μl of Asialene ([…]) respectively. Each sample was divided in three portions which were treated with 10 μl of a platelet aggregation agent, ADP ([…] final concentration), collagen (4 μg/ml final concentration) and arachidonic acid (0.2 mg/ml final concentration) respectively, and the aggregation was recorded for 4 minutes.
# human endothelial cells [4] = experiment: Production of PG1 (6-Keto PGF1, RIA) from human endothelial cells in culture; format: cell-based; settings: Asialene 1.5 μg/ml, culture medium + EtOH 0.75 g/dl
# Experimental: as §1
# The activity of the salt prepared in the Example 1, indicated as Asialene, on cicatrization was evaluated by an in vitro test which allows to deduce the effects of the substance on the vascular permeability and on the cicatrization.
# The test consists in the evaluation of the production of PG1 from cells extracted by collagenase from vein of human omphalic funicle suspended and seeded in a suitable culture medium (E199+FCS 20%+L-Glutamine 2 mM+Penicillin 200 U/ml+Streptomycin 200 μg/ml) cultured in 75 or 25 ml flasks for 48-72 hours.
# After removing the cells with 0.05% Trypsin and 0.02% EDTA the subcultures were prepared using secondary cultures seeded on a 35 mm Petri dish, kept in an incubator with 5% CO2 and 100% humidity. For the evaluation of the cell morphology and confluence and the PG1 production, about 300,000 cells/ml of culture medium were used carrying out the count in a Burker chamber, following three schemes: • 1. Cells+culture medium+EtOH(0.75 g/dl) • 2. Cells+culture medium+EtOH(0.75 g/dl)+FTT([…]) • 3. […]
# The cultures were evaluated with an inverse light microscope, at 24 and 48 hours monitoring cell attachment and growth while on supernatant aliquots the stable metabolite of the prostacyclin (6-Keto PGF1) was assayed with RIA method. […]
molecule,measurement,setting,value
"COc1ccc2c(c1)c(CC(=O)O)c(C)n2C(=O)c1ccc(Cl)cc1 [Indomethacin, indomethacin, reference compound]",ID50 (dose level able to reduce by 50% the oedematous response),[1],90 μg/cm^2
same,Inhibition (%) of oedema,[1]; topical dose 90 μg/cm^2,49.3%
same,Oedema (mg) m ± E.S.,[1]; topical dose 90 μg/cm^2,3.5 ± 0.4 mg
C[C@H]1[C@H](C)CC[C@]2(C(=O)O)CC[C@]3(C)C(=CC[C@@H]4[C@@]5(C)C[C@@H](O)[C@H](O)[C@@](C)(CO)[C@@H]5[C@H](O)C[C@]43C)[C@H]12 [madecassic acid],solubility in water,[2],almost total insolubility in water
"C[C@@H]1CC[C@]2(C(=O)O)CC[C@]3(C)C(=CCC4[C@@]5(C)C[C@@H](O)[C@H](O)[C@@](C)(CO)C5CC[C@]43C)C2[C@H]1C (stereo partly drawn) [asiatic, 2α, 3β, 23-trihydroxyurs-12-en-28-oic acid]",solubility in water,[2],almost total insolubility in water
Salt of the Asiatic Acid with Ethylenediamine [Asialene],ID50 (dose level able to reduce by 50% the oedematous response),[1],62 μg/cm^2
same,Inhibition (%) of oedema,[1]; topical dose 30 μg/cm^2,27.5%
same,Oedema (mg) m ± E.S.,"[1]; topical dose 30 μg/cm^2, control 6.9 ± 0.2",5.0 ± 0.4 mg
same,Inhibition (%) of oedema,[1]; topical dose 100 μg/cm^2,68.1%
same,Oedema (mg) m ± E.S.,"[1]; topical dose 100 μg/cm^2, control 6.9 ± 0.2",2.2 ± 0.5 mg
same,Inhibition (%) of oedema,[1]; topical dose 300 μg/cm^2,91.3%
same,Oedema (mg) m ± E.S.,"[1]; topical dose 300 μg/cm^2, control 6.9 ± 0.2",0.6 ± 0.1 mg
same,Inhibition (%) of oedema,[1]; topical dose 1000 μg/cm^2,94.2%
same,Oedema (mg) m ± E.S.,"[1]; topical dose 1000 μg/cm^2, control 6.9 ± 0.2",0.4 ± 0.1 mg
same,potency higher than that of the reference drug (comparison between the ID50 values),[1]; versus indomethacin,50%
same,fibronectin intercellular strands (1:100 scale),human endothelial cells [3],85
same,Aggregation from arachidonic acid (0.2 mg/ml),platelet; controls 81,23
same,Aggregation from ADP (4 mM),platelet; controls 88,32
same,Aggregation from collagen (4 μg/ml),platelet; controls 100,50
same,6-Keto PGF1,human endothelial cells [4]; 24 h,980 µg/mL
same,6-Keto PGF1,human endothelial cells [4]; 48 h,889 µg/mL
